Experimental data taken from patent US20120252829A1, “TIVOZANIB AND CAPECITABINE COMBINATION THERAPY” (priority 2011, published 2012).
Where two headings read alike, the source gives them in different places.

Key:
[1] = oral administration of capecitabine; human xenograft tumors in mice; cited from earlier work
[2] = cited from earlier work
tumor blood vessels = assay: inhibition of angiogenesis in tumors; assay type: in vivo, mouse; conditions: tivozanib 5 mg/kg daily 5 weeks, capecitabine 300 mg/kg daily two weeks, seven day break, FIG. 4
Procedure: An experiment was designed to evaluate the effect of the combination therapy on angiogenesis (FIG. 4). Tivozanib was dosed at 5 mg/kg daily for 5 weeks. Capecitabine was dosed at 300 mg/kg daily for two weeks, followed by a seven day break, and then an additional two weeks of capecitabine at 300 mg/kg daily.

[3] = cited from earlier work; remark: listed apart in the source
[4] = test system: Her2-driven breast tumor (BH) model; assay: tumor growth in Her2-driven breast tumor (BH) mouse model; assay type: in vivo; conditions: tivozanib 5 mg/kg daily, capecitabine 300 mg/kg daily 2 weeks on, 1 week off, oral, more than 4 weeks; FIG. 1
Procedure: (§1) The Her2-driven breast tumor (BH) model used herein has the following genotype: MMTVrTTA, tetO HER2, INK4A(−/−), luciferase reporter.
When tumors reached approximately 200 mm^3, the mice were randomized into 4 groups of 10 mice each. One group received vehicle control. Each of the other 3 groups were treated with one of the two agents either administered alone or in combination. Both agents were administered orally.
Capecitabine was dosed at 300 mg/kg daily for two weeks followed by a one week break (2 weeks on, 1 week off) for more than 4 weeks.

[5] = test system: Her2-driven breast tumor (BH) model; assay: tumor cell proliferation by Ki67 immunohistochemistry; assay type: in vivo, mouse
Procedure: as §1
To determine the mechanism of action of the combination therapy, capecitabine was administered alone and in combination with tivozanib, over two dosage cycles (FIG. 2A). Capecitabine was dosed at 300 mg/kg daily for two weeks, followed by a seven day break, and then an additional two weeks of capecitabine at 300 mg/kg daily. Tivozanib was dosed at 5 mg/kg daily for 5 weeks.

[6] = test system: thymidine phosphorylase (TP); assay: TP induction in BH216-derived primary culture, qRT-PCR; assay type: cell-based, mouse; conditions: cultured BH216 tumor cells; 0.01-1000 nM, 3 hours
[7] = 272-patient Phase 2 clinical trial; cited from earlier work
tumor = conditions: preclinical models; cited from earlier work
[8] = test system: thymidine phosphorylase (TP); assay: TP expression in murine breast tumors after tivozanib, qRT-PCR
Procedure: Murine breast tumors (BH216, BH225, BH229 and BH281) were introduced subcutaneously into nude mice. For each tumor type, when tumors reached approximately 250 mm^3, the mice were randomized into five groups, with three mice in each group. One group received vehicle (0.5% methyl-cellulose) and the remaining groups each received one dose of 5 mg/kg tivozanib. The mice were sacrificed and tumors collected at 0.5, 2, 6 and 16 hours post-dose. RNA was extracted from the tumors and TP expression was analyzed with qRT-PCR.

VEGF receptor 3 = VEGF receptor 3 (Homo sapiens, UniProt P35916); conditions: cited from earlier work
VEGF receptor 3, sequence (P35916 25-1363): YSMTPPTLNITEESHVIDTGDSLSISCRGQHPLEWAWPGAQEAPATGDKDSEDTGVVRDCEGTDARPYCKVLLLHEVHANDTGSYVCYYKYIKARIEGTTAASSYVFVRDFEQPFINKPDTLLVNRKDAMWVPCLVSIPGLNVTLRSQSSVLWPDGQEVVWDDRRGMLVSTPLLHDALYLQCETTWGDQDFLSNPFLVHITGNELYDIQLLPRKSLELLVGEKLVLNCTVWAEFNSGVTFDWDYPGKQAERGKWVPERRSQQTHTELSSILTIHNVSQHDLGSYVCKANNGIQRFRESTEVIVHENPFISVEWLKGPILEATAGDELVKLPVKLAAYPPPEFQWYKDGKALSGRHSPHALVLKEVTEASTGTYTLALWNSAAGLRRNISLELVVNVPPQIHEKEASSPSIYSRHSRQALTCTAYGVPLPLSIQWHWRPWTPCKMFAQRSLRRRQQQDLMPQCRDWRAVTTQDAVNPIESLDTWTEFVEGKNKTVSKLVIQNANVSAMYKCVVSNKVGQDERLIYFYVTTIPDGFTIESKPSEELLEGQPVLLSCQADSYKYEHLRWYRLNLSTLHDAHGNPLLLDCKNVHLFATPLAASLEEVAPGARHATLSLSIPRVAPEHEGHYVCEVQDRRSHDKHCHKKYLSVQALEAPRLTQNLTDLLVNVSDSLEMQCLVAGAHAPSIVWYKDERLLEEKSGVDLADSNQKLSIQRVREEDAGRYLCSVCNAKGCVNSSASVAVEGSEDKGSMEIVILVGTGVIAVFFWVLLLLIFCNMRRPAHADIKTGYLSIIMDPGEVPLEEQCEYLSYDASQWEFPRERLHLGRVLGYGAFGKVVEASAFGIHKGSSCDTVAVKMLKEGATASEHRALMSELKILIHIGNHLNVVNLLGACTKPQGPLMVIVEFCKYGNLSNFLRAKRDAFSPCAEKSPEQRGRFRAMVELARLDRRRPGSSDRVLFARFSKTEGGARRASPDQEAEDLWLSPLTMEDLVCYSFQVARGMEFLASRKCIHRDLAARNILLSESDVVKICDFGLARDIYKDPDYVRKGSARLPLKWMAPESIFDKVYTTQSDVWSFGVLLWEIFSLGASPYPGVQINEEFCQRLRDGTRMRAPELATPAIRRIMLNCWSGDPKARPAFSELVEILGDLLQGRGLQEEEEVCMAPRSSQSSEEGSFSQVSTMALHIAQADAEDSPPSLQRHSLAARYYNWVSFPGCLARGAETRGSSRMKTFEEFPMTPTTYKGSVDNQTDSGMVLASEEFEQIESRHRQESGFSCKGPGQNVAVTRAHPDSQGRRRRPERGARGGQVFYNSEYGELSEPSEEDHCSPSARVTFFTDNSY

[9] = test system: thymidine phosphorylase (TP); conditions: BH216 tumors; one dose at or about maximum tolerated dosage; tumors collected after 6 hours (also 24 hours for B20-4.1)
Procedure: Each of the VEGF inhibitors were administered at or about their respective maximum tolerated dosages.

Q: With `CCCCCOC(=O)Nc1nc(=O)n([C@@H]2O[C@H](C)[C@@H](O)[C@H]2O)cc1F` [capecitabine, 5′-deoxy-5-fluoro-N-[(pentyloxy)carbonyl]-cytidine] as the compound, how does the “5-FU AUC in tumors versus plasma” value [1] read?
A: 100-200 fold

Q: And the elimination half-life ([2]; human body)?
A: approximately ¾

Q: And the angiogenesis (tumor blood vessels)?
A: no change in the angiogenesis profile

Q: And the side effects ([3]; capecitabine, can be severe)?
A: hand-and-foot syndrome (pain, swelling or redness of your hands or feet), diarrhea, nausea, vomiting, dehydration, sores in the mouth and throat, stomach area pain, tiredness or weakness, fever, and joint and muscle pain

Q: What about the tumor growth [4] of the same compound?
A: only moderate reduction in tumor growth

Q: What about the tumor cell proliferation ([5]; capecitabine 300 mg/kg daily, first two weeks) of the same compound?
A: reduced tumor cell proliferation

Q: And the “tumor cell proliferation between capecitabine cycles” value ([5]; during break periods)?
A: tumor cell proliferation rebound

Q: Which “area under the curve (AUC) of fluorouracil, higher at day 14 than day 1” value ([2]; after capecitabine, day 14 vs day 1) does the source give for `O=c1[nH]cc(F)c(=O)[nH]1` [fluorouracil, 5-fluoro-2,4-(1H,3H)-pyrimidinedione] here?
A: 35%

Q: And the “half-life of primary metabolite of capecitabine” value ([2]; relative to parent compound)?
A: same approximate half-life of the parent compound

Q: With `COc1cc2nccc(Oc3ccc(NC(=O)Nc4cc(C)on4)c(Cl)c3)c2cc1OC` [tivozanib, N-{2-chloro-4-[(6,7-dimethoxy-4-quinolyl)oxy]-phenyl}-N′-(5-methyl-3-isoxazolyl)urea] as the compound, how does the “time for serum levels to reach steady state” value ([2]; chronic dosing) read?
A: 2-3 weeks

Q: What about the half-life ([2]; human body) of the same compound?
A: 91.2 to 113 h

Q: And the TP induction [6]?
A: TP induction was observed

Q: And the angiogenesis (tumor blood vessels)?
A: only a reduction in vessel size but not microvessel density

Q: What about the “most common side effects” value ([3]; Phase 1, Phase 2 and Phase 3 clinical trials) of the same compound?
A: hypertension and dysphonia

Q: What about the clinical trial results [7] of the same compound?
A: positive results

Q: And the antitumor activity (tumor)?
A: exhibits antitumor activity

Q: And the tumor growth [4]?
A: only moderate reduction in tumor growth

Q: What about the “up-regulation of TP” value ([8]; BH216 tumors, 6 hours after tivozanib 5 mg/kg) of the same compound?
A: approximately 8 fold

Q: And the TP expression ([8]; BH216 tumors, 16 hours post-dose, tivozanib 5 mg/kg)?
A: significant elevation in TP expression

Q: And the TP up-regulation ([8]; BH229 tumor, tivozanib 5 mg/kg)?
A: no TP up-regulation

Q: What about the TP up-regulation ([8]; BH281 tumor, tivozanib 5 mg/kg) of the same compound?
A: no TP up-regulation

Q: What about the inhibitory activity (VEGF receptor 3) of the same compound?
A: picomolar

Q: What about the TP induction [9] of the same compound?
A: significant TP induction
